How the values were obtained:
Type in all cases: in vivo
adult male Wistar rats [1] = test: Combined test in rats: tryptamine (TRY) test; conditions: Rattus norvegicus, 1.5 h, compound subcutaneously or orally, 40 mg/kg tryptamine i.v. at 90 minutes, read-out: Combined test in rats
Procedure: (§1) The experimental animals used in this test were adult male Wistar rats (weight 240 ± 10g). After an overnight fast, the animals were treated subcutaneously or orally with an aqueous solution of the compound under investigation (1ml/100g body weight) (time = zero) and put in isolated observation cages. […] At the end of this 1 hour period (time = 90 minutes) the same animals were injected intravenously with 40 mg/kg of tryptamine (TRY) and the presence of the typical tryptamine-induced bilateral tonic seizures and hyperaemia of the ears was noted. Two hours after pretreatment (time = 120 minutes) finally, the same animals were challenged with 1.25 mg/kg intravenously of norephinephrine (NOR) and possible mortality was looked for up to 60 minutes later.
(§2) The table 4 gives the ED₅₀-values of a number of the compounds under consideration. As used herein, the ED₅₀-value represents the dose which protects 50% of the animals from apomorphine-, tryptamine- or norepinephrine-induced phenomena.

beagle dogs = test: The apomorphine test in dogs (APO-dog); conditions: Canis lupus familiaris, 1 h; dose protecting 50% of animals from emesis; compound subcutaneously or orally; 0.31 mg/kg (s.c.) apomorphine one hour thereafter; read-out: (APO)-dog test, ED₅₀ in mg/kg
Procedure: The method used is described by P.A.J. Janssen and C.J.E. Niemegeers in Arzneim.-Forsch. (Drug Res.), 9,765-767 (1959). The compounds listed in table 4 were administered subcutaneously or orally to beagle dogs at different doses and the animals were challenged one hour thereafter with a standard dose of 0.31 mg/kg (s.c.) of apomorphine.
The table 4 gives the ED₅₀-values of a number of the compounds under consideration. As used herein, the ED₅₀ value represents the dose which protects 50% of the animals from emesis.

adult male Wistar rats [2] = test: Combined test in rats: norepinephrine (NOR) test; conditions: Rattus norvegicus; protection from norepinephrine-induced mortality; compound subcutaneously or orally; 1.25 mg/kg norepinephrine i.v. at 120 minutes, observed up to 60 minutes; read-out: Combined test in rats; ED₅₀ in mg/kg (NOR)
Procedure: as §1, §2

adult male Wistar rats [3] = test: Combined test in rats: apomorphine (APO) test; conditions: Rattus norvegicus, 0.5 h, read-out: Combined test in rats, ED₅₀ in mg/kg (APO)
Procedure: as §1, §2

[4] = protection from tryptamine-induced bilateral tonic seizures, ED₅₀ in mg/kg (TRY)-convulsions
[5] = protection from tryptamine-induced hyperaemia of the ears, ED₅₀ in mg/kg (TRY)-hyperaemia
[6] = dose protecting 50% of animals from apomorphine-induced agitation and stereotypic chewing, compound subcutaneously or orally, 1.25 mg/kg apomorphine hydrochloride i.v. at 30 minutes

| SMILES | ED50 (adult male Wistar rats [1]; [4]) [mg/kg] | ED50 (adult male Wistar rats [1]; [5]) [mg/kg] | ED50 (beagle dogs) [mg/kg] | ED50 (adult male Wistar rats [2]) [mg/kg] | ED50 (adult male Wistar rats [3]) [mg/kg] | ED50 (adult male Wistar rats [3]; [6]) [mg/kg] |
| --- | --- | --- | --- | --- | --- | --- |
| Cc1nc2scc(C)n2c(=O)c1CCN1CCC(c2nn(C)c3cc(F)ccc23)CC1 [Compound 21] | 0.08 | 0.005 | 0.12 | 0.31 | 1.25 |  |
| Cc1nc2n(c(=O)c1CCN1CCC(c3nn(C)c4cc(F)ccc34)CC1)CCS2 [Compound 25] | 1.25 | 0.01 | < 0.015 | 0.31 | > 10 |  |
| Cc1nc2sccn2c(=O)c1CCN1CCC(c2nn(-c3ccc(F)cc3)c3cc(F)ccc23)CC1 [Compound 16] | 5 | 0.08 |  | > 10 | > 10 |  |
| Cc1nc2ccccn2c(=O)c1CCN1CCC(c2nn(C)c3cc(F)ccc23)CC1 [Compound 11] | 0.31 | 0.005 | 0.12 | 0.08 | 5 |  |
| Cc1nc2n(c(=O)c1CCN1CCC(c3n[nH]c4cc(F)ccc34)CC1)CCCC2 [Compound 13] | 1.25 | 0.02 | 0.015 | 0.31 | > 10 |  |
| Cc1nc2sccn2c(=O)c1CCN1CCC(c2nn(C)c3cc(F)ccc23)CC1 [Compound 18] | 1.25 | 0.005 | 0.2 | 1.25 |  | 5 |
| Cc1nc2c(C)cccn2c(=O)c1CCN1CCC(c2nn(Cc3ccccc3)c3cc(F)ccc23)CC1 [Compound 29] | 5 | ≤ 0.16 | 0.004 | 1.25 |  | 1.25 |
| Cc1nc2scc(C)n2c(=O)c1CCN1CCC(c2nn(-c3ccc(F)cc3)c3cc(F)ccc23)CC1 [Compound 20] | ≥ 10 | 0.08 |  | > 10 | > 10 |  |
| COc1ccc2c(C3CCN(CCc4c(C)nc5sccn5c4=O)CC3)n[nH]c2c1 [Compound 34] | > 10 | 1.25 | > 0.01 | 1.25 |  | > 10 |
| COc1ccc(Cn2nc(C3CCN(CCc4c(C)nc5n(c4=O)CCS5)CC3)c3ccc(F)cc32)cc1 [Compound 30, 6-[2-[4-[6-fluoro-1-[(4-methoxyphenyl)methyl]-1H-indazol-3-yl]-1-piperidinyl]ethyl]-2,3-dihydro-7-methyl-5H-thiazolo[3,2-a]pyrimidin-5-one] | 10 | 0.08 | > 0.63 | 5 | > 10 |  |
| Cc1nc2ccccn2c(=O)c1CCN1CCC(c2nn(-c3ccc(F)cc3)c3cc(F)ccc23)CC1 [Compound 9] | 5 | 0.08 |  | 5 | > 10 |  |
| Cc1nc2sccn2c(=O)c1CCN1CCC(c2n[nH]c3cc(F)ccc23)CC1 [Compound 17] | 5 | 0.03 | 0.004 | 2 | 5 |  |
| Cc1nc2n(c(=O)c1CCN1CCC(c3n[nH]c4cc(F)ccc34)CC1)CCS2 [Compound 2, 6-[2-[4-(6-fluoro-1H-indazol-3-yl)-1-piperidinyl]ethyl]-2,3-dihydro-7-methyl-5H-thiazolo[3,2-a]pyrimidin-5-one] | 5 | 0.005 | 0.002 | 0.31 | 5 |  |

Source: EP0357134B1, “Antihypertensive 3-piperidinyl-indazole derivatives” (priority 1988, dated 1990)
